Assays:
Progesterone receptor = target: T1, Progesterone receptor (Oryctolagus cuniculus, UniProt P06186); test: relative bond affinity for the progesterone receptor of rabbit's uterus; assay type: binding; settings: for relative bond affinity (RBA), Progesterone 2H: 2 hours incubation at 0° C.; for relative bond affinity (RBA), Progesterone 2H / relative bond affinity (RBA), Progesterone 24H: tritiated R 5020 5 nM, RBA=100 (CH)/(CX), reference cold progesterone; for relative bond affinity (RBA), Progesterone 24H: 24 hours incubation at 0° C.; for antiprogesterone activity: conclusion in words from the receptor binding study
T1 construct: from tissue; host or cells: uterus cytosol (105,000 g supernatant) of impuberal female rabbits treated with estradiol
T1 sequence (P06186 1-930): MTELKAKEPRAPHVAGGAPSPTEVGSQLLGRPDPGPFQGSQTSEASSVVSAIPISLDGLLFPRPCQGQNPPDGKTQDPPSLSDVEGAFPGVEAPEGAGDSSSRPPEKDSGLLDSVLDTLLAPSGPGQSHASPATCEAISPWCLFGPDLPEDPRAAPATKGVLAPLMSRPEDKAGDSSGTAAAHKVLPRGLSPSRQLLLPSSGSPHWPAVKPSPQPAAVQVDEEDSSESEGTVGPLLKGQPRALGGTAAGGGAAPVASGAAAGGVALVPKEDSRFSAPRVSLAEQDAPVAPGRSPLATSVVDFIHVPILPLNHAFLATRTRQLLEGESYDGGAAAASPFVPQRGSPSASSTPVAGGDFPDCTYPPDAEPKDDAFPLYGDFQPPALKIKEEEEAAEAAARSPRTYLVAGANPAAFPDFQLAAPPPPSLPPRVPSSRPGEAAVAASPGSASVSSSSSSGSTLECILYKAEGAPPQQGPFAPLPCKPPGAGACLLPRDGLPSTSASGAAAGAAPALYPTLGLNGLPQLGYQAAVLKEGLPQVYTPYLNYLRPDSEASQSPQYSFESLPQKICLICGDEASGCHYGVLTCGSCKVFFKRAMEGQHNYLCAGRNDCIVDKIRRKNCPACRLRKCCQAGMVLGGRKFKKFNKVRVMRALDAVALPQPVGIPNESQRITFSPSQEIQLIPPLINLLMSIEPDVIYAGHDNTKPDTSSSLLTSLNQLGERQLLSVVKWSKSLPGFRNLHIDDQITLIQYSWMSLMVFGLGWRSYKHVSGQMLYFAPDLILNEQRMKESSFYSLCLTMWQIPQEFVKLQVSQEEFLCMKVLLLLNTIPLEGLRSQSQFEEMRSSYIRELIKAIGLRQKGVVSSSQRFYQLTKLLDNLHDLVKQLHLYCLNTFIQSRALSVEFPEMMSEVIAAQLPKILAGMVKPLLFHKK
Procedure: (§1) 1) Measurement of the relative bond affinity for the receptors of steroid hormones:
Progesterone receptor of rabbit's uterus:
Impuberal female rabbits weighing about 1 kg received a cutaneous application of 25 ug of estradiol and five days after this treatment, the animals were killed and the uteruses were removed, weighed and homogenized at 0° C. using a Potter teflon-flask in a (TS) 10 mM Tris, 0.25M saccharose, HCl pH 7.4 buffer (1 g of tissue per 50 ml of TS). The homogenate was then ultra-centrifuged (105,000 g×90 mn) at 0° C. […] The concentration of bonded tritiated R 5020 (B) was then measured in each incubate by the technique of adsorption with carbon-dextran.
(§2) Calculation of the relative bond affinity:
(§3) The calculation of the relative bond affinity (RBA) was identical for all receptors. The following two curves were drawn: the percentage of bonded tritiated hormone B/T as a function of the logarithm of the concentration of the cold reference hormone and B/T as a function of the logarithm of the concentration of the cold product under test. The straight line of the equation:
(§4) B max=Percentage of bonded tritiated hormone for an incubation of this tritiated hormone at the concentration (T).
(§5) B min=Percentage of bonded tritiated hormone for an incubation of this tritiated hormone at the concentration (T) in the presence of a great excess of cold hormone (2500×10^-9 M).
(§6) The intersections of the straight line I50 and the curves allowed the evaluation of the concentrations of the cold reference hormone (CH) and of the cold product under test (CX) which inhibited by 50% the bonding of the tritiated hormone on the receptor. The relative bond affinity (RBA) of the product under test was determined by the equation RBA=100 (CH)/(CX)

Glucocorticoid receptor = target: T2, Glucocorticoid receptor (Rattus norvegicus, UniProt P06536); test: relative bond affinity for the glucocorticoid receptor of rat's thymus; assay type: binding; settings: tritiated dexamethasone 2.5 nM, RBA=100 (CH)/(CX), reference cold dexamethasone; for relative bond affinity (RBA), Glucocorticoid 4H: 4 hours incubation at 0° C.; for relative bond affinity (RBA), Glucocorticoid 24H: 24 hours incubation at 0° C.
T2 construct: The thymuses were removed and homogenized; from tissue; host or cells: thymus cytosol (105,000 g supernatant) of suprarenalectomized male rats
T2 sequence (P06536 1-795): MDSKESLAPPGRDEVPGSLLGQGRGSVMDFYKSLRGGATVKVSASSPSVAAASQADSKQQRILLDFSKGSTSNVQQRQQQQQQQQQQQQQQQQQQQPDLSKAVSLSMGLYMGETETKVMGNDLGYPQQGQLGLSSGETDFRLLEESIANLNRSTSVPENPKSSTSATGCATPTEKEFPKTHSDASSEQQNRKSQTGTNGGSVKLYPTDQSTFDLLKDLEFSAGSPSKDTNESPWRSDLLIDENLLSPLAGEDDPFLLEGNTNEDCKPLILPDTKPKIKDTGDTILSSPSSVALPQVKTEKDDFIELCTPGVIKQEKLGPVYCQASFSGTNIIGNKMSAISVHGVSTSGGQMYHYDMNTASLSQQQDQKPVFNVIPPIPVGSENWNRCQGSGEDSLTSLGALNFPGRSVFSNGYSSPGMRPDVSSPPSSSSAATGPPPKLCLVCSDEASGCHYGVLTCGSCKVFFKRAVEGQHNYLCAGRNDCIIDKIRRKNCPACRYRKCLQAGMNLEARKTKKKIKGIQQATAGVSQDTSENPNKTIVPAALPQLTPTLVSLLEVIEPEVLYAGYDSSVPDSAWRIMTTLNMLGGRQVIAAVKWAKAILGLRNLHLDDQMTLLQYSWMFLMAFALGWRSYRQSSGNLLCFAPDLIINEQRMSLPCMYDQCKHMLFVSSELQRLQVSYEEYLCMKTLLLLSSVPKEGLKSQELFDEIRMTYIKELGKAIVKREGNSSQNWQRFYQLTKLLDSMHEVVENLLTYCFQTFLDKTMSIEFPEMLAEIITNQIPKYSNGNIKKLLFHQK
Procedure: as §1
Glucocorticoid receptor of rat's thymus:
Male rats weighing 160 to 200 g were suprarenalectomized and 4 to 8 days after this removal, the animals were killed. The thymuses were removed and homogenized at 0° C. using a Potter teflon-flask in a (TSD) 10 Mm Tris, 0.25M saccharose, 2 mM dithiothreitol, HCl pH 7.4 buffer (1 g of tissue per 10 ml of TSD). The homogenate was then ultracentrifuged at 105,000 g×90 mn at 0° C. Aliquots of the supernatant "cytosol", were incubated at 0° C. for 4 hours and 24 hours with a constant concentration (T=2.5 nM) of tritiated dexamethasone in the presence of increasing concentrations (0-2,500 nM) of cold dexamethasone or of the cold product under test. The concentration of the bonded tritiated dexamethasone (B) was then measured in each incubate by the technique of adsorption with carbon-dextran.
as §2, §3, §4, §5, §6

Compound	relative bond affinity (RBA), Glucocorticoid 4H (Glucocorticoid receptor)	relative bond affinity (RBA), Glucocorticoid 24H (Glucocorticoid receptor)	relative bond affinity (RBA), Glucocorticoid 4H (Glucocorticoid receptor; listed as EX. 5)	relative bond affinity (RBA), Glucocorticoid 24H (Glucocorticoid receptor; listed as EX. 5)	relative bond affinity (RBA), Glucocorticoid 4H (Glucocorticoid receptor; listed as EX. 6)	relative bond affinity (RBA), Glucocorticoid 24H (Glucocorticoid receptor; listed as EX. 6)	relative bond affinity (RBA), Progesterone 2H (Progesterone receptor)	relative bond affinity (RBA), Progesterone 24H (Progesterone receptor)	relative bond affinity (RBA), Progesterone 24H (Progesterone receptor; listed as EX. 5)	relative bond affinity (RBA), Progesterone 24H (Progesterone receptor; listed as EX. 6)	antiprogesterone activity (Progesterone receptor)
CN(C)c1ccc([C@H]2C[C@@]3(C)[C@@H](CC[C@@]3(O)/C=C\COC(=O)CCC(=O)O)[C@@H]3CCC4=CC(=O)CCC4=C32)cc1 [Example 2, Sodium (Z)-3-[11β-[4-dimethylamino-phenyl]-Δ^4,9-estradien-17β-ol-3-one-17α-yl]-2-propenyl succinate]	62	48					21	88			
CN(C)c1ccc([C@H]2C[C@@]3(C)[C@@H](CC[C@@]3(O)C#CCOC(=O)CCC(=O)O)[C@@H]3CCC4=CC(=O)CCC4=C32)cc1 [Example 4, Sodium and 3-[11β-[4-dimethylamino-phenyl]-Δ^4,9-estradien-17β-ol-3-one-17α-yl]-2-propynyl succinate]	31,5	27					14	26			
CC#C[C@]1(OC(=O)CCC(=O)O)CC[C@H]2[C@@H]3CCC4=CC(=O)CCC4=C3[C@@H](c3ccc(SC)cc3)C[C@@]21C [Example 12, Sodium and 11β-[4-methylthio-phenyl]-17α-(1-propynyl)-Δ^4,9 estradien-3-one-17β-yl succinate]	9,5	24					1,2	3,6			good

Further lines, with some results ahead:

relative bond affinity (RBA), Glucocorticoid 4H (Glucocorticoid receptor)	relative bond affinity (RBA), Glucocorticoid 24H (Glucocorticoid receptor)	relative bond affinity (RBA), Glucocorticoid 4H (Glucocorticoid receptor; listed as EX. 5)	relative bond affinity (RBA), Glucocorticoid 24H (Glucocorticoid receptor; listed as EX. 5)	relative bond affinity (RBA), Glucocorticoid 4H (Glucocorticoid receptor; listed as EX. 6)	relative bond affinity (RBA), Glucocorticoid 24H (Glucocorticoid receptor; listed as EX. 6)	Compound	relative bond affinity (RBA), Progesterone 2H (Progesterone receptor)	relative bond affinity (RBA), Progesterone 24H (Progesterone receptor)	relative bond affinity (RBA), Progesterone 24H (Progesterone receptor; listed as EX. 5)	relative bond affinity (RBA), Progesterone 24H (Progesterone receptor; listed as EX. 6)	antiprogesterone activity (Progesterone receptor)
		28	77			CC#C[C@]1(OC(=O)CCC(=O)O)CC[C@H]2[C@@H]3CCC4=CC(=O)CCC4=C3[C@@H](c3ccc(N(C)C)cc3)C[C@@]21C [Example 5, 11β-[4-dimethylamino-phenyl]-17-(1-propynyl)-Δ^4,9-estradien-3-one-17β-yl acid succinate]	2		8		
				26	54	CC#C[C@]1(OC(=O)CCC(=O)O)CC[C@H]2[C@@H]3CCC4=CC(=O)CCC4=C3[C@@H](c3ccc(N(C)C)cc3)C[C@@]21C [Example 6, Sodium 11β-[4-dimethylamino-phenyl]17α-(1-propynyl)-Δ^4,9 - estradien-3-one-17β-yl succinate]	2			6	
37	77					CN(C)c1ccc([C@H]2C[C@@]3(C)[C@@H](CC[C@]3(C#CCl)OC(=O)CCC(=O)O)[C@@H]3CCC4=CC(=O)CCC4=C32)cc1 [Example 10, Sodium and 21-chloro-11β-[4-dimethylamino-phenyl]-19-nor-17α-Δ^4,9-pregnadien-3-one-20-yn-17β-yl succinate]	3	13			good

From patent US5276023A, “19-nor-steroid esters” (Roussel Uclaf, priority 1989, dated 1994)
